Results published in publication PMC7381538, “Broad spectrum antibiotic-degrading metallo-β-lactamases are phylogenetically diverse” (Protein & Cell, 2020).
pKi: −log10 of the molar value.

Assays:
SPR-1trunc = SPR-1trunc (Serratia proteamaculans, UniProt Z9GZR1QZ95); type: biochemical; conditions: beta-lactam substrate and mode only in supplement
SER-1trunc = type: biochemical; conditions: beta-lactam substrate and mode only in supplement

Sequence of SPR-1trunc (Z9GZR1QZ95 50-298 limits assumed): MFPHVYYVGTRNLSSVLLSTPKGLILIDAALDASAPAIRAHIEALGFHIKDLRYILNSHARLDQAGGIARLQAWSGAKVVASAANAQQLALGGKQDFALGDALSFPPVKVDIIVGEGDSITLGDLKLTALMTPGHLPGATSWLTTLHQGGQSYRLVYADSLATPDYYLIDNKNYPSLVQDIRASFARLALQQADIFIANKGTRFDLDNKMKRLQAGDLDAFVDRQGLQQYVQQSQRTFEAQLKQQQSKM

SMILES: O=C(O)[C@H]1/C(=C/CO)O[C@@H]2CC(=O)N21 [CA, clavulanic acid]
- pKi (SPR-1trunc): 3.70
- pKi (SER-1trunc): 3.54
